Experiments:
Assay type in all cases: in vivo
[1] = test system: Rice (cultivar: Nipponbare); experiment: Test Example 4: reduction of low-temperature stress by immersion treatment of rice; conditions: rice seedlings, immersion at 1 ppm for 2 days; low-temperature stress 4° C. 5 days, then 4 days at 25° C.
Description: Evaluation Test for Reduction of Low-Temperature Stress by Immersion Treatment of Rice Rice (cultivar: Nipponbare) A necessary amount of rice seeds was immersed in an aqueous solution of 1,000 ppm of Benlate, and incubated at 30° C. overnight under dark conditions. The aqueous solution of Benlate was replaced with distilled water, and the seeds were further incubated at 30° C. overnight under dark conditions to stimulate the germination of the seeds. A filter paper was placed on the holes of a plug tray having 406 holes, and the rice seeds obtained after the stimulation of germination were sown on the filter paper. To the rice seeds was added a kimura B solution for hydroponics (see Plant Science 119: 39-47 (1996)) at ½ concentration, and cultivated for 5 days in an artificial weather control room under the following conditions: • temperature: 28° C. in daytime/23° C. in night, humidity: 70%, illuminance: 8,500 lux, and day length: 12 hours. <Compound Treatment> A DMSO solution of 1,000 ppm of the present compound 1 was prepared, and diluted with a kimura B solution for hydroponics at ½ concentration. The solution for hydroponics containing the compound was dispensed into the wells of a 24-well plate at 2 ml per well. […] In the treated group, the experiment was performed in duplication and the average value of the green area per individual was calculated. […]

[2] = test system: Wheat (cultivar: Apogee); experiment: Test Example 7: reduction of high-temperature stress by spraying treatment of wheat; conditions: spray solution 100 ppm, high-temperature stress 36° C./32° C. 7 days, 60 days after sowing
Description: Evaluation Test for Reduction of High-Temperature Stress by Spraying Treatment of Wheat
Five wheat seeds were sown in the culture soil (AISAI) in each plastic pot and cultivated for 28 days in an artificial weather control room under the conditions of a temperature of 18° C. in daytime/15° C. in night, and an illuminance of 7,000 lux. Before the stress test, 3 individuals per pot were removed.
To 0.5 mg of the present compound 1 were added 120 mg of a mixture (weight ratio 1:1) of white carbon and ammonium polyoxyethylene alkyl ether sulfate and 300 μl of water. The mixture was finely ground by a wet grinding method to obtain a flowable formulation of the present compound 1. This flowable formulation was diluted with […] of water. The mixture was diluted with RINO (manufactured by NIHON NOHYAKU CO., LTD) as a spreading agent to 5,000-fold dilution to obtain a spray solution containing 100 ppm of the present compound 1. […]
After the high-temperature stress treatment, the plants were cultivated in an artificial weather control room under the conditions of a temperature of 18° C. in daytime/15° C. in night, and a illuminance of 7,000 lux. Then, 60 days after the sowing, the fresh weight of seeds in ears of the tested plants in 7 or 8 pots were measured, and the average values of the weight of seeds of ears per one pot (3 individuals) were calculated. […]

[3] = test system: Corn (cultivar: Kuromochi); experiment: Test Example 3: reduction of low-temperature stress by treatment of corn seeds; conditions: corn seed treatment, low-temperature stress 2.5±1° C. 4 days, then 4 days at 27° C.
Description: Evaluation Test for Reduction of Low-Temperature Stress by Treatment of Corn Seeds Corn (cultivar: Kuromochi) A blank slurry solution containing 10% (V/V) color coat red (Becker Underwood, Inc.), 10% (V/V) CF-Clear (Becker Underwood, Inc.) and 1.66% Maxim 4FS (Syngenta) was prepared. A slurry solution was prepared by dissolving the present compound 1 in the blank slurry solution such that 0.5 g, 5 g or 50 g of the compound is applied to each 100 kg of corn seeds. In a 50-ml centrifuge tube (manufactured by BD Japan), 0.35 ml of the slurry solution was placed for each 14.4 g of corn seeds and stirred until the solution was dried, thereby coating the seeds. In addition, seeds were coated with the blank slurry solution and used as seeds for a non-treated group. One of the treated corn seeds was sown in culture soil (AISAI) in each pot (55 mm in diameter×58 mm in height) and cultivated for 10 days under the conditions of a temperature of 27° C., an illuminance of 5,000 lux, and a day length of 16 hours. The grown seedlings were used for the test. The pots at 10 days after the sowing were placed into an artificial weather control room (VHT-2-15P-NC2-S, manufactured by Nippon Medical & Chemical Instruments Co., Ltd) and cultivated for 4 days under the following conditions: • temperature: 2.5±1° C., day length: 16 hours, and illuminance: 5,000 lux. <Evaluation Method> After the low-temperature stress treatment, the plants were cultivated for 4 days under the conditions of a temperature of 27° C., an illuminance of 5,000 lux, and a day length of 16 hours. Then, the fresh weight of the overground part of the plants was measured. The experiment was performed in five replications for each treatment condition and the average weight per individual was calculated. As a result, the fresh weight of the overground part of plants in the treated group of applying 0.5 g, 5 g or 50 g of the present compound 1 to each 100 kg of seeds was much heavier than that in the non-treated group.

## COC(=O)c1cc2cc(C(F)(F)F)ccc2s1 [compound 1]
[1]
  green area of the overground part of the plant vs non-treated group: much larger
[2]
  fresh weight of seeds of ears vs non-treated group: much larger
[3]; 0.5 g per 100 kg of seeds
  fresh weight of the overground part of plants vs non-treated group: much heavier
[3]; 5 g per 100 kg of seeds
  fresh weight of the overground part of plants vs non-treated group: much heavier
[3]; 50 g per 100 kg of seeds
  fresh weight of the overground part of plants vs non-treated group: much heavier
